# Entries after “also recorded” stand apart in the source; their conditions may differ. Where two headings read alike, the source gives them in different places. Ends that are not written are not given here. TAMRA = 5-(and -6)-carboxytetramethylrhodamine fluorophore, conjugated to the side chain of the C-terminal Cys
# Assays:
# 661w cone cells [1] = assay: Cell ELISA of phage-displayed peptides on 661w cone cells; type: cell-based, mouse; details: for binding affinity (OD450) 661w cone cells compared to hARPE19 cells: ratio 661w / hARPE19; for binding to 661w cone cells (cell ELISA, OD450): vs empty bacteriophage control
# Experimental: (§1) ARPE19 and 661w cells were seeded a day before the experiment on 96 well plates (10^4 cells/well). On day of experiment, cells were first fixed in 4% paraformaldehyde solution at room temperature for 15 minutes. This was followed by three washes with PBS and then the cells were blocked for 30 minutes at room temperature with 1% BSA in PBS. […] The wells were then washed with 0.1% TBST and individual phage clones were incubated for one hour at room temperature in blocking buffer with gentle rocking. After phage incubation, wells were washed three times with 0.1% TBST to reduce non-specific binding and eliminate weakly bound phages. Biotin-conjugated, mouse anti-M13 phage coat protein primary antibody was added (Thermo Fisher cat. #MA1-34468) at 1:5000 dilution in 0.1% TBST and incubated for 1 hour at room temperature with gentle rocking. The wells were washed three more times with 0.1% TBST and subsequently incubated with poly-HRP streptavidin secondary antibody (Thermo Fisher cat. #N200) at 1:10000 dilution in 0.1% TBST for 1 hour at room temperature. Wells were then washed three times with 0.1% TBST and 3,3′,5,5′-Tetramethylbenzidine (Thermo Fisher) was added to the wells and incubated at room temperature for 5-10 minutes and the reaction was stopped with 0.2 M Sulfuric Acid and absorbance was read at 450 nm using TECAN Infinite200 Pro spectrophotometer (Tecan Group Ltd., Switzerland).
# (§2) After identifying 30 novel peptide sequences, top-performing candidates were identified that could target LNPs to the neural retina. Since bacteriophages were eluted from the entire neural retina, the candidates were pre-screened for their ability to bind to the cell of interest, the PRs. Single bacteriophage-peptides were amplified in E. coli, and a cell-based enzyme-linked immunosorbent assay (ELISA) was developed against the 661w mouse cone PR cell line and the hARPE19 cell line as a control. As expected, for most of the bacteriophage-peptide candidates, binding affinities were weaker when tested against RPE cells compared to 661w cone cells. […] However, the binding affinity, as measured by OD450, was close to 2-fold higher when binding to 661w cone cells compared to hARPE19 cells.
# hARPE19 cells = assay: Cell ELISA of phage-displayed peptides on hARPE19 cells; type: cell-based; details: vs empty bacteriophage control
# Experimental: as §1, §2
# [2] = test system: PR and RPE/choroid layers; assay: In vivo validation with TAMRA-labelled peptides, intravitreal or subretinal injection
# Experimental: (§3) For subretinal injections, mice were topically administered 0.5% proparacaine, 1% tropicamide, and 2.5% phenylephrine and anesthetized with ketamine (100 mg/kg)/xylazine (10 mg/kg). To initiate the injection, 2.5% hypromellose was used to cover the eye and a 30-gauge needle was used to make an incision in the limbus. A glass coverslip was then placed over the eye to allow for visualization of the retina. Going through the scleral incision in the limbus, using a Hamilton syringe with a 33-gauge blunt needle, 1 μL PBS, peptide, or LNP-Cre were delivered to the subretinal space. A 2% fluorescein solution was added to the PBS and LNPs so retinal detachment could be confirmed. For most injections, scleral incisions in the limbus were created nasally and PBS or LNPs were delivered temporally. Intravitreal injections were performed as previously described elsewhere (25). […] For intravitreal injections 1.1 μg (1.5 μL, 741 ng/μL) was injected.
# (§4) At specified time points, mouse eyes were enucleated and fixed using 4% paraformaldehyde in PBS overnight at 4° C. Eyes were cryopreserved in 30% sucrose solution for 2 hours prior to embedding in OCT media followed by cryo-sectioning and confocal imaging. Retinal cryo-sections were 12 μm thick and DAPI stained prior to confocal imaging done using TCS SP8 X (Leica Microsystems, Buffalo Grove, IL). Z-stacks (spanned 10 μm with 1 μm interval) were collected using a 40× objective, and maximum intensity projections were used for further analysis.
# (§5) All confocal imaging was performed using TCS SP8 X (Leica Microsystems, Buffalo Grove, IL). Z-stacks (spanned 10 μm with 1 μm interval) were collected using a 20× or 40× objective, and maximum intensity projections were used for further analysis.
# (§6) For TAMRA quantification from peptide injections, region of interest (ROI) were created for RPE/choroid and PR cell layer for mean fluorescent intensity values. Fold change measurements were compared to TAMRA-only controls. An ordinary one-way ANOVA, with Tukey's correction for multiple comparisons test was used for comparisons between groups (Prism 8 software, GraphPad Software, La Jolla, CA). Data are presented as mean±SEM. A p-value <0.05 was considered as statistically significant.
# 661w cone cells [3] = assay: Cell internalization of TAMRA-labeled peptides, 661w cone cells; type: cell-based, mouse; details: 661w cells, TAMRA-conjugated peptide, 30 minutes
# Experimental: Approximately 50,000 cells were seeded per well of 8-well μ-Slide (Ibidi, Fitchburg, WI) and incubated with 10 nM and 50 nM TAMRA-labeled peptides for 30 minutes at 37° C. followed by washing with PBS, fixation in 4% Paraformaldehyde for 10 mins at room temperature. Cells were then washed three times, DAPI stained and cover slipped for confocal microscopy imaging. Fluorescence confocal images of cell internalization studies were captured with the same exposure settings and were analyzed for fluorescence intensity using ImageJ (version 1.45; National Institutes of Health, Bethesda, MD). First, the hARPE or 661w cells were outlined and ImageJ calculated the pixel intensity of the different cell treatments with different peptides. At least three images were analyzed for each peptide tested.
# TAMRA-conjugated peptides were added to hARPE19 and 661w cells at a 10 nM and 50 nM concentration to evaluate their internalization (FIGS. 2E to 2H and 8A to 8B). After 30 minutes of incubation at 37° C., cells were fixed and DAPI stained for confocal imaging.
# [4] = test system: PR and RPE/choroid layers; details: mouse, in vivo
# Experimental: as §3, §4, §5, §6
Substance,binding affinity (OD450) 661w cone cells compared to hARPE19 cells (661w cone cells [1]),"binding to 661w cone cells (cell ELISA, OD450) (661w cone cells [1])","binding to hARPE19 (RPE) cells (cell ELISA, OD450) (hARPE19 cells)",also measured
ATGPRSV [Peptide 57],~2 fold,high binding,highest affinity,"binding to hARPE19 (RPE) cells (cell ELISA, OD450) (hARPE19 cells; listed as MH57): significantly higher binding"
DGPPRKP [Peptide 3],,,highest affinity,
DGPPRKPGGGSC (DGPPRKPGGGSC(TAMRA); not fully specified) [MH3],,reduced binding affinity; also recorded: low-binder,significantly higher binding,retinal localization of TAMRA-labelled peptide (confocal) [2]: poor accumulation in RPE and PRs
HLSSLTP [Peptide 54],,highest affinity,highest affinity,"binding to hARPE19 (RPE) cells (cell ELISA, OD450) (hARPE19 cells; listed as MH54): significantly higher binding"
LAFHRMP [Peptide 52],~2 fold,highest affinity,highest affinity,"binding to 661w cone cells (cell ELISA, OD450) (661w cone cells [1]; listed as MH52): high binding; binding to hARPE19 (RPE) cells (cell ELISA, OD450) (hARPE19 cells; listed as MH52): significantly higher binding"
MPVAVYR [Peptide 50],,highest affinity,highest affinity,
MPVAVYRGGGSC (MPVAVYRGGGSC(TAMRA)) [MH50],~2 fold,high binding; also recorded: high-binders; also recorded: top 2 performing,significantly higher binding,cellular uptake compared to the negative control MH3 (661w cone cells [3]): 4.1 fold; retinal localization of TAMRA-labelled peptide (confocal) [4]: localized to PRs including the outer nuclear layer and inner/outer segments as well as RPE
SNLAAFP [Peptide 43],,highest affinity,,
"SNLAAFPGGGSC (SNLAAFPGGGSC(TAMRA)) [MH43, peptide 43 with added linker; TAMRA-labelled at carboxy-terminal Cys in cell and in vivo tests]",,high-binders,,
SPALHFL [Peptide 42],,highest affinity,,
SPALHFLGGGSC (SPALHFLGGGSC(TAMRA)) [MH42],~2 fold,high binding; also recorded: high-binders; also recorded: top 2 performing,significantly higher binding,cellular uptake compared to the negative control MH3 (661w cone cells [3]): 1.7 fold; clearance of labelled peptide from retina [4]: ≤ 24 h; retinal localization of TAMRA-labelled peptide (confocal) [4]: localized to PRs including the outer nuclear layer and inner/outer segments as well as RPE; timepoint of maximum level of labelled peptide in retina [4]: 6 h
